pEC50, pIC50: −log10 of the molar value. *1 amine or outer side, *2 acyl side, *3 side chain or, on linkers, in order; H or OH if unused. Where a SMILES comes first, the peptide text is derived from it. Side-chain parts run from the residue outwards. [ ]: non-standard residue; d: D form. The star is where a group is joined. C18 diacid = O=C(O)CCCCCCCCCCCCCCCCC(=O)*; γGlu = O=C(O)[C@H](CCC(=O)[*:2])N[*:1]; AEEA = NCCOCCOCC(=O)O; Aib = CC(C)(N)C(=O)O
Legend:
[1] = ThT assay for the assessment of physical stability; assay type: physicochemical; conditions: ThT buffer system A: 100 mM phosphate buffer pH 7.4; 3 mg/ml, 37° C.
Source text: Low physical stability of a peptide solution may lead to amyloid fibril formation, which is observed as well-ordered, thread-like macromolecular structures in the sample, which eventually may lead to gel formation. Thioflavin T (ThT) is widely used to visualize and quantify the presence of misfolded protein aggregates [Biancalana et al., Biochim. Biophys. Acta 2010, 1804(7), 1405]. […] Enzymol. 1999, 309, 274]. The time course for fibril formation often follows the characteristic shape of a sigmoidal curve and can be separated into three regions: a lag phase, a fast growth phase, and a plateau phase.
The typical fibril formation process starts with the lag phase in which the amount of partially folded peptide turned into fibrils is not significant enough to be detected. The lag-time corresponds to the time the critical mass of the nucleus is built. Afterwards, a drastic elongation phase follows, and fibril concentration increases rapidly.
Investigations were carried out to determine fibrillation tendencies under stress conditions by shaking at 37° C. within Fluoroskan Ascent FL or Fluoroskan Ascent.
For the tests in Fluoroskan Ascent (FL), 200 μl sample were placed into a 96-well mictrotiter plate PS, flat bottom, Greiner Fluotrac No. 655076. Plates were sealed with Scotch Tape (Qiagen). Samples were stressed by continuous cycles of 10 sec shaking at 960 rpm and 50 sec rest period at 37° C. The kinetic was monitored by measuring fluorescence intensity every 20 min.
Peptides were diluted in a buffer system to a final concentration of 3 mg/ml. 20 μl of a 10.1 mM ThT solution in H2O were added to 2 ml of peptide solution to receive a final concentration of 100 μM ThT. For each sample eight replicates were tested.
ThT buffer system A) 100 mM phosphate buffer pH 7.4
ThT buffer system B) 100 mM phosphate buffer pH 7.4, 2.7 mg/ml m-cresol
Lag time in hours (h) in Thioflavin T (ThT) assay of peptide samples was determined in ThT buffer system A as described in Methods.

[2] = target: human GLP-1 receptor (hGLP-1R) (Homo sapiens, UniProt P43220); test: cAMP HTRF assay, HEK-293 cell line over-expressing human GLP-1 receptor; assay type: cell-based; conditions: HEK-293, cAMP, 0% HSA
Summary of the method: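 Thawed HEK-293 cells over-expressing human GLP-1R (5000 cells/well) in HBSS/20 mM HEPES buffer, with 0.1% HSA where stated, incubated with compound for 30 min at room temperature. Generated cAMP quantified by HTRF.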

[3] = target: T1, human GIP receptor (hGIPR) (Homo sapiens, UniProt P48546); test: Binding assay, displacement of [125I]GIP from HEK-293 membranes expressing GIPR; conditions: [125I]GIP displacement
T1 sequence (P48546 22-466): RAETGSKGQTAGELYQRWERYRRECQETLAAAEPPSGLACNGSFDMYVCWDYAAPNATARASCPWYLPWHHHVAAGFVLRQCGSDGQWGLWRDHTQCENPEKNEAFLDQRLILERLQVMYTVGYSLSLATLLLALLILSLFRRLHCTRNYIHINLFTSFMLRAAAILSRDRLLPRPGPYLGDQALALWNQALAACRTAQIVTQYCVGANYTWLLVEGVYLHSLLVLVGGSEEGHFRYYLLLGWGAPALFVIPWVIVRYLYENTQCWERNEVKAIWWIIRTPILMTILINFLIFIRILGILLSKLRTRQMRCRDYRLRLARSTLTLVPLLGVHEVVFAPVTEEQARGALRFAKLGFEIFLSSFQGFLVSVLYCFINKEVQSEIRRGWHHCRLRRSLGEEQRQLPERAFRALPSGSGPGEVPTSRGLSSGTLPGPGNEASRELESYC
Procedure: HEK-293 cells recombinantly over-expressing GIPR or GLP-1R were grown to 50% confluency, washed with warm 1×PBS (Gibco) and detached in HEPES/EDTA-buffer (100 mM HEPES pH 7.5, 5 mM EDTA). Cells were harvested by centrifugation at 4° C. and 3000×g and the pellets were stored at −80° C. until further processing.
After thawing on ice, pellets were resuspended in HEPES/EDTA-buffer and homogenized on ice for 1 min using Ultra-Turray T25. After subsequent sonification the cell debris was removed by centrifugation at 1000×g and 4° C. Supernatants were then ultra-centrifuged at 100000×g and 4° C. under vacuum for 30 min. Pellets were resuspended in HEPES/EDTA/NaCl-buffer (20 mM HEPES, 1 mM EDTA, 150 mM NaCl; add 1 Complete Mini Protease inhibitor cocktail to 10 ml buffer) and protein content was determined via BCA-Protein assay.

human GIP receptor = target: T2, human GIP receptor (Homo sapiens, UniProt P48546); test: cAMP HTRF assay in human adipocytes endogenously expressing the human GIP receptor; assay type: cell-based; conditions: for pEC50: read-out: hGIPR EC50; for Emax: read-out: hGIPR Emax
T2 construct: human adipocytes endogenously expressing the human GIP receptor; host or cells: human preadipocytes (Lonza) differentiated to adipocytes
T2 sequence (P48546 22-466): T1 sequence (P48546 22-466)
Procedure: For this, one vial of human preadipocytes (˜10^6 cells; Lonza) was thawed in a T-75 cell culture dish.
After 3 days, the cells were washed with PBS and 1.5 ml Trypsin, incubated for 4 min, then resuspended in medium, centrifugated for 10 min @ 300 rcf RT, resuspended again and distributed to four T-75 cell culture dishes.
After 5 days, the cells were washed with PBS and 1.5 ml Trypsin, incubated for 4 min, then resuspended in medium, centrifugated for 10 min @ 300 rcf RT, resuspended again and sawn in T-75 dishes (2.5×10^6 cells per dish) in 15 ml Differentiation medium each.
After 6 days of differentiation, 5000 cells per well were dispensed on a 96-well plate (#CLS3694 from Corning®, Sigma-Aldrich). For measurement of cAMP generation, 25 μL of test compound was added to each well of the 96-well plate, followed by incubation for 30 min at room temperature.
The cAMP generated following test compound stimulation was determined using a kit from Cisbio Corp. based on HTRF (Homogenous Time Resolved Fluorescence). The cAMP assay was performed according to manufacturer's instructions (Cisbio).
The cAMP content of cells was determined using a kit from Cisbio Corp. based on HTRF (Homogenous Time Resolved Fluorescence).

Chain of human GLP-1 receptor (hGLP-1R) (P43220 24-463): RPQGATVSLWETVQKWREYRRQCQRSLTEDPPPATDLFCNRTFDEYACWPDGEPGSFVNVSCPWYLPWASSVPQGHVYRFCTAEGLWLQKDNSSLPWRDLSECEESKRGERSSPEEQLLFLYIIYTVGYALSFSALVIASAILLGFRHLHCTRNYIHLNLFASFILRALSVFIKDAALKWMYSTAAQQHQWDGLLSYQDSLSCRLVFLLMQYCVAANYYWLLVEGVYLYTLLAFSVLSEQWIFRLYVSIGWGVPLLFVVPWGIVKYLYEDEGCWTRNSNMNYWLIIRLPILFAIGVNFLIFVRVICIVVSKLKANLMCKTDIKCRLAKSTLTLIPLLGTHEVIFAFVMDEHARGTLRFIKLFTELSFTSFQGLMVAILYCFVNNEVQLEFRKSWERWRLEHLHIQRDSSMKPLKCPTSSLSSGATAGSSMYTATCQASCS

CC[C@H](C)[C@H](NC(=O)[C@H](CCCNC(=N)N)NC(=O)[C@H](CC(=O)O)NC(=O)[C@H](CCCCNC(=O)COCCOCCNC(=O)COCCOCCNC(=O)CC[C@H](NC(=O)CCCCCCCCCCCCCCCCC(=O)O)C(=O)O)NC(=O)C(C)(C)NC(=O)[C@@H](NC(=O)[C@H](CO)NC(=O)[C@H](CC(C)C)NC(=O)[C@H](CC(=O)O)NC(=O)[C@H](CO)NC(=O)[C@@H](NC(=O)[C@H](Cc1ccccc1)NC(=O)[C@@H](NC(=O)CNC(=O)[C@H](CCC(=O)O)NC(=O)C(C)(C)NC(=O)[C@@H](N)Cc1ccc(O)cc1)[C@@H](C)O)[C@@H](C)CC)[C@@H](C)CC)C(=O)N[C@@H](Cc1c[nH]cn1)C(=O)N[C@@H](CCC(N)=O)C(=O)NC(C)(C)C(=O)N[C@@H](CCC(=O)O)C(=O)N[C@@H](Cc1ccccc1)C(=O)N[C@H](C(=O)N[C@@H](CCC(=O)O)C(=O)N[C@@H](Cc1c[nH]c2ccccc12)C(=O)N[C@@H](CC(C)C)C(=O)N[C@@H](CC(C)C)C(=O)N[C@@H](C)C(=O)N[C@@H](CCC(N)=O)C(=O)NCC(=O)N1CCC[C@H]1C(=O)N[C@@H](CO)C(=O)N[C@@H](CO)C(=O)NCC(=O)N[C@@H](C)C(=O)N1CCC[C@H]1C(=O)N1CCC[C@H]1C(=O)N1CCC[C@H]1C(=O)N[C@@H](CO)C(N)=O)[C@@H](C)CC [SEQ ID NO: 4, H2N-Y-Aib-E-G-T-F-I-S-D-I-S-I-Aib-K[{AEEA}2-gGlu-C18OH]-D-R-I-H-Q-Aib-E-F-I-E-W-I-L-A-Q-G-P-S-S-G-A-P-P-P-S-NH2] (H-Y[Aib]EGTFISDLSI[Aib]K([AEEA-AEEA-γGlu-C18 diacid])DRIHQ[Aib]EFIEWLLAQGPSSGAPPPS-NH2)
Increase in FI [1]: no | Lag time before increase [1]: >45 h | pEC50 [2]: < 8.00 | pIC50 [3]: 9.70 | pEC50 (human GIP receptor): 9.30 | Emax (human GIP receptor): 116%

CC[C@H](C)[C@H](NC(=O)[C@H](CCCNC(=N)N)NC(=O)[C@H](CC(=O)O)NC(=O)[C@H](CCCCNC(=O)CNC(=O)CNC(=O)CNC(=O)CC[C@H](NC(=O)CCCCCCCCCCCCCCCCC(=O)O)C(=O)O)NC(=O)C(C)(C)NC(=O)[C@@H](NC(=O)[C@H](CO)NC(=O)[C@H](CC(C)C)NC(=O)[C@H](CC(=O)O)NC(=O)[C@H](CO)NC(=O)[C@@H](NC(=O)[C@H](Cc1ccccc1)NC(=O)[C@@H](NC(=O)CNC(=O)[C@H](CCC(=O)O)NC(=O)C(C)(C)NC(=O)[C@@H](N)Cc1ccc(O)cc1)[C@@H](C)O)[C@@H](C)CC)[C@@H](C)CC)C(=O)N[C@@H](Cc1c[nH]cn1)C(=O)N[C@@H](CCC(N)=O)C(=O)NC(C)(C)C(=O)N[C@@H](CCC(=O)O)C(=O)N[C@@H](Cc1ccccc1)C(=O)N[C@H](C(=O)N[C@@H](CCC(=O)O)C(=O)N[C@@H](Cc1c[nH]c2ccccc12)C(=O)N[C@@H](CC(C)C)C(=O)N[C@@H](CC(C)C)C(=O)N[C@@H](C)C(=O)N[C@@H](CCC(N)=O)C(=O)NCC(=O)N1CCC[C@H]1C(=O)N[C@@H](CO)C(=O)N[C@@H](CO)C(=O)NCC(=O)N[C@@H](C)C(=O)N1CCC[C@H]1C(=O)N1CCC[C@H]1C(=O)N1CCC[C@H]1C(=O)N[C@@H](CO)C(N)=O)[C@@H](C)CC [SEQ ID NO: 5, H2N-Y-Aib-E-G-T-F-I-S-D-I-S-I-Aib-K[{Gly}3-gGlu-C18OH]-D-R-I-H-Q-Aib-E-F-I-E-W-I-L-A-Q-G-P-S-S-G-A-P-P-P-S-NH2] (H-Y[Aib]EGTFISDLSI[Aib]K([Gly-Gly-Gly-γGlu-C18 diacid])DRIHQ[Aib]EFIEWLLAQGPSSGAPPPS-NH2)
Increase in FI [1]: no | Lag time before increase [1]: >45 h | pEC50 [2]: < 8.00 | pIC50 [3]: 10.00 | pEC50 (human GIP receptor): 9.30 | Emax (human GIP receptor): 137%

CC[C@H](C)[C@H](NC(=O)[C@H](Cc1ccccc1)NC(=O)[C@H](CCC(=O)O)NC(=O)[C@H](CCC(=O)O)NC(=O)[C@H](CCC(N)=O)NC(=O)[C@H](Cc1c[nH]cn1)NC(=O)[C@@H](NC(=O)[C@H](CCCNC(=N)N)NC(=O)[C@H](CC(=O)O)NC(=O)[C@H](CCCCNC(=O)COCCOCCNC(=O)COCCOCCNC(=O)CC[C@H](NC(=O)CCCCCCCCCCCCCCCCC(=O)O)C(=O)O)NC(=O)C(C)(C)NC(=O)[C@@H](NC(=O)[C@H](CO)NC(=O)[C@H](CC(C)C)NC(=O)[C@H](CC(=O)O)NC(=O)[C@H](CO)NC(=O)[C@@H](NC(=O)[C@H](Cc1ccccc1)NC(=O)[C@@H](NC(=O)CNC(=O)[C@H](CCC(=O)O)NC(=O)C(C)(C)NC(=O)[C@@H](N)Cc1ccc(O)cc1)[C@@H](C)O)[C@@H](C)CC)[C@@H](C)CC)[C@@H](C)CC)C(=O)N[C@@H](CCC(=O)O)C(=O)N[C@@H](Cc1c[nH]c2ccccc12)C(=O)N[C@@H](CC(C)C)C(=O)N[C@@H](CC(C)C)C(=O)N[C@@H](C)C(=O)N[C@@H](CCC(N)=O)C(=O)NCC(=O)N1CCC[C@H]1C(=O)N[C@@H](CO)C(=O)N[C@@H](CO)C(=O)NCC(=O)N[C@@H](C)C(=O)N1CCC[C@H]1C(=O)N1CCC[C@H]1C(=O)N1CCC[C@H]1C(=O)N[C@@H](CO)C(=O)O [SEQ ID NO: 11, H2N-Y-Aib-E-G-T-F-I-S-D-I-S-I-Aib-K[{AEEA}2-gGlu-C18OH]-DRIHQEEFIEWILAQGPSSGAPPPS-OH] (H-Y[Aib]EGTFISDLSI[Aib]K([AEEA-AEEA-γGlu-C18 diacid])DRIHQEEFIEWLLAQGPSSGAPPPS-OH)
pEC50 [2]: < 8.00 | pIC50 [3]: 9.30 | Emax (human GIP receptor): 122%

From patent publication US20230103631A1, “PEPTIDES AS SELECTIVE GIP RECEPTOR AGONISTS” (Sanofi, priority 2020, published 2023)
